Where a SMILES comes first, the peptide text is derived from it. The star is where a group is joined. Palmitoyl = CCCCCCCCCCCCCCCC(=O)*

The test system of series [1] is murine splenocytes and COLO 205 cells. In words: Cytotoxicity at high lipopeptide concentrations. The format is cell-based.
For series [2], the system named is murine splenocytes. In words: Induction of class II CMH molecules (IA^b) on murine splenocytes by lipopeptide fragments (FIG. 12A). In kind it is cell-based, 129 Sv mice. The note with it: murine splenocytes, 24 hours, different concentrations. How it is done: (§1) Fresh splenocytes are obtained from 7-week-old female 129 Sv mice. The COLO 205 human colon carcinoma lines are obtained from the ATCC (American Type Culture Collection). The splenocytes and COLO 205 cells are maintained in RPMI 1640 (Gibco BRL, Courbevoie, France), supplemented with 10% FCS (Gibco BRL), sodium pyruvate (Sigma, St. Louis, USA) and incubated at 37° C. in 5% CO2.
(§2) The cells were stimulated for 24 hours with different concentrations of MuL, L-mIFNγ 113-132, L-mIFNγ 122-132 or MuSL. The murine splenocytes and COLO 205 cells were labelled for the expression of II MHC with 1 μg of anti-mouse IA^b FITC monoclonal antibody (mAb) (Pharmingen, San Diego, USA) and 10 μl of anti-HLA-DR clone TAL.1B5 mouse FITC mAb (Cymbus Biotechnology Ltd, Hants, UK), respectively. A negative control mouse FITC IgG1 (DAKO S. A., Trappes, France) was used as control isotype. The cells were incubated for 1 hour at 4° C. in PBS, 10% FCS and then washed, and the expression of II MHC was analysed by flow cytometry using a Coulter EPILS II cytometer (Coulter, Hialeah, Fla., USA) at a rate of 10,000 events per sample.
(§3) FIG. 12: Induction of class II CMH molecules by human or murine cells stimulated with lipopeptides derived from IFN-γ. The murine splenocytes (A) and the COLO 205 human cell line (B) were incubated for 24 hours with different concentrations of lipopeptides derived from IFN-γ. The cells were labelled with a monoclonal antibody directed against the class II CMH molecules, and analysed by flow cytometry. The ratio between the average fluorescence intensity of the cells treated with the lipopeptides and between the average fluorescence intensity of the untreated cells is indicated on the y-axis. The lipopeptide concentration is indicated in μM on the x-axis; MuL: solid circles; MuSL : hollow circles; L-mIFN 113-132: triangles; L-mIFN 122-132: X.

Series [3] has as its system COLO 205 human cell line. In words: Induction of HLA-DR on COLO 205 cells by lipopeptide fragments (FIG. 12B). The note with it: COLO 205, 24 hours, different concentrations. In kind it is cell-based. How it is done: as §1, §2, §3
The nature of series [4]: Circular dichroism studies. The format is physicochemical. The following applies: 2 mM pH 7 phosphate buffer. How it is done:
The circular dichroism measurements on the peptides were carried out at 25° C. using a Jobin-Yvon CD-6 machine at controlled temperature. The scans were carried out with a cell 0.1 cm in length in an average time of 5 sec. The wavelength interval measured ranges from 185 to 260 nm at a scanning step speed of 0.5 nm/step. The scans were carried out on the peptides at neutral pH in a 2 mM phosphate buffer with or without the helix-stabilizing reagent trifluoroethanol (TFE). The peptide concentration was adjusted to a concentration of 20 μM, after determination of the exact amount of a 100 μM solution by quantitative amino acid analysis. The average values of 4 repeat scans were expressed as average molar ellipticity per residue (deg. cm^2 dmol.).

Series [5] deals with P388D1. In words: Induction of class II CMH molecules on P388D1 cell line, flow cytometry. The format is cell-based, murine. The note with it: for percentage of class II CMH detected by flow cytometry, P388D1: 50 μM, stimulated for 24 hours. The protocol: (§4) Principle: to check the induction of class II CMH molecules on cell lines (P388D1 and WEHI3: murine myelomonocytes) with the above-mentioned peptides.
(§5) Procedure. The cells are cultured the day before at a rate of 3×10^5 cells per well in 24-well culture plates (NUNC). The following day, the cells are stimulated with the various lipopeptide and peptide constructs at a final concentration of 50 μM in 1 ml of medium. After incubation for 24 hours at 37° C. in an atmosphere saturated with 5% CO2, the cells are recovered and incubated for 1 hour at 4° C. with 3 μg of a biotinylated mouse anti-I-Ad monoclonal antibody (Pharmingen, San Diego, USA). After revelation for 30 minutes with FITC streptavidin used at a dilution of 1:100 (Sigma, St. Louis, USA), the expression of class II molecules is determined by flow cytometry.
In general terms: A flow cytometer gives signals particle by particle.

Series [6] concerns WEHI3. In words: Induction of class II CMH molecules on WEHI3 cell line, flow cytometry. In kind it is cell-based, murine. The following applies: 50 μM, stimulated for 24 hours. The protocol: as §4, §5
The subject of series [7] is splenocytes. As to the kind of experiment: Expression of class II CMH molecules and Fc-γ receptors on splenocytes taken from an animal. The format is cell-based, Balb/c mouse. The following applies: 50 μM, 24 hours, flow cytometry. How it is done: (§6) Principle: to evaluate the activity of the vectorized agonist on cells taken from an animal and treated in vitro (in order to assess the value of a subsequent in vivo study).
(§7) Procedure. The splenocytes and peritoneal cells taken from an animal (Balb/c mouse) are re-cultured at a rate of 2.5×10^6 splenocytes and […] peritoneal cells per well in 24-well plates (NUNC) stimulated with 50 μM of the different peptides in a final volume of 1 ml. After stimulation for 24 hours, the cells are labelled with the anti IA^d monoclonal antibody described in the preceding paragraph, according to the same protocol. To detect the Fc-γ R, the cells are labelled with 1 μg of a rat anti Fc-γ R monoclonal antibody (Pharmingen, San Diego, USA). Next, the cells are incubated for ½ hour with a rat anti IgG biotinylated polyclonal antibody. The revelation is then carried out with FITC streptavidin used at a dilution of 1:100 (Sigma, St. Louis, USA). The expression of Fc-γ R is determined by flow cytometry.

For series [8], the system named is peritoneal cells. As to the kind of experiment: Expression of class II CMH molecules and Fc-γ receptors on peritoneal cells taken from an animal. The format is cell-based, Balb/c mouse. The note with it: 50 μM, 24 hours, flow cytometry. The protocol: as §6, §7
In series [9] the test system is splenocytes taken from mice 129 (Wild type: WT). In words: Involvement of the IFN-γ receptor: IA^d and Fc-γ R on splenocytes of wild type mice 129. The format is cell-based. The following applies: stimulation for 24 hours, flow cytometry. The protocol: as §7
(§8) Principle. to confirm that the biological activity observed was effectively associated with a stimulation of the IFN-γ receptor, we repeated the same experiments, in parallel on splenocytes taken from mice 129 (Wild type: WT) and on cells taken from mice 129 no longer expressing the alpha chain of the IFN-γ receptor (KO mice).
(§9) Procedure. The experimental protocol followed is identical to that described in paragraph 2 above.

Series [10] relates to cells taken from mice 129 no longer expressing the alpha chain of the IFN-γ receptor (KO mice). As to the kind of experiment: Involvement of the IFN-γ receptor: IA^d and Fc-γ R on cells of mice lacking the alpha chain of the IFN-γ receptor. In kind it is cell-based. The following applies: stimulation for 24 hours, flow cytometry. The protocol: as §7, §8, §9
Series [11] has as its system human colon carcinoma cells (COLO 205). In words: Induction of HLA-DR on COLO 205 cell line, flow cytometry. In kind it is cell-based. The note with it: COLO 205, 50 μM. How it is done:
Principle: human colon carcinoma cells (COLO 205) are analysed for their ability to express HLA-DR after having been stimulated with the various peptide constructs.
Procedure. The cell line COLO 205 is cultured at a rate of 3×10^5 cells per well in a 24-well culture plate (NUNC). The following day, the cells are stimulated with the various peptide constructs at a final concentration of 50 μM in 1 ml of medium, and are incubated at 37° C. for 24 hours. The cells are then recovered and labelled using 3 μg of an anti HLA-DR mouse biotinylated monoclonal antibody (clone L243). After revelation with FITC streptavidin, the cells are analysed by flow cytometry.

For the compound `CCCCCCCCCCCCCCCC(=O)NCCCC[C@H](NC(C)=O)C(=O)N[C@@H](C)C(=O)N[C@@H](CCCCN)C(=O)N[C@@H](Cc1ccccc1)C(=O)N[C@@H](CCC(=O)O)C(=O)N[C@H](C(=O)N[C@@H](CC(N)=O)C(=O)N[C@@H](CC(N)=O)C(=O)N1CCC[C@H]1C(=O)N[C@@H](CCC(N)=O)C(=O)N[C@H](C(=O)N[C@@H](CCC(N)=O)C(=O)N[C@@H](CCCNC(=N)N)C(=O)N[C@@H](CCC(N)=O)C(=O)N[C@@H](C)C(=O)N[C@@H](Cc1ccccc1)C(=O)N[C@@H](CC(N)=O)C(=O)N[C@@H](CCC(=O)O)C(=O)N[C@@H](CC(C)C)C(=O)N[C@H](C(=O)N[C@@H](CCCNC(=N)N)C(=O)N[C@H](C(=O)N[C@H](C(=O)N[C@@H](Cc1c[nH]cn1)C(=O)N[C@@H](CCC(N)=O)C(=O)N[C@@H](CC(C)C)C(=O)N[C@@H](CC(C)C)C(=O)N1CCC[C@H]1C(=O)N[C@@H](CCC(=O)O)C(=O)N[C@@H](CO)C(=O)N[C@@H](CO)C(=O)N[C@@H](CC(C)C)C(=O)N[C@@H](CCCNC(=N)N)C(=O)N[C@@H](CCCCN)C(=O)N[C@@H](CCCNC(=N)N)C(=O)N[C@@H](CCCCN)C(=O)N[C@@H](CCCNC(=N)N)C(=O)N[C@@H](CO)C(=O)N[C@@H](CCCNC(=N)N)C(N)=O)C(C)C)C(C)C)[C@@H](C)CC)C(C)C)C(C)C` [MuL] (Ac-K(Palmitoyl)AKFEVNNPQVQRQAFNELIRVVHQLLPESSLRKRKRSR-NH2), the cytotoxicity entry in series [1] was “cytotoxic”.
Consider “L-mIFN-γ 122-132: fragment 122-132 of murine IFNγ, carboxamide end, N-terminal Ac-K(Pam) group (Ac-K(Palmitoyl)ESSLRKRKRSR-NH2; SMILES CCCCCCCCCCCCCCCC(=O)NCCCC[C@H](NC(C)=O)C(=O)N[C@@H](CCC(=O)O)C(=O)N[C@@H](CO)C(=O)N[C@@H](CO)C(=O)N[C@@H](CC(C)C)C(=O)N[C@@H](CCCNC(=N)N)C(=O)N[C@@H](CCCCN)C(=O)N[C@@H](CCCNC(=N)N)C(=O)N[C@@H](CCCCN)C(=O)N[C@@H](CCCNC(=N)N)C(=O)N[C@@H](CO)C(=O)N[C@@H](CCCNC(=N)N)C(N)=O)”, for which, in [2], the “increase in class II CMH molecules (FIG. 12A)” value is given as “neither L-mIFN-γ 122-132 nor MuSL are active”. Besides, the “increase in class II CMH molecules (FIG. 12B)” value in series [3] is “neither L-mIFN-γ 122-132 nor MuSL are active”. In addition, the “helical (ordered) conformation by CD” value in [4] (25% trifluoroethanol) was 50-60%.
With “Mu: non-lipid peptide: sequence delimited by the amino acids in positions 95 and 132 of the murine IFN-γ peptide sequence (AKFEVNNPQVQRQAFNELIRVVHQLLPESSLRKRKRSR; listed as Mus sp.)”, in [5], the “percentage of class II CMH detected by flow cytometry, P388D1” value is 5%. In addition, the “percentage of class II CMH detected by flow cytometry, WEH1” value in series [6] is 8%. Further, in series [7], the “splenocytes II CMH (%)” value is 12% and the “splenocytes RFc (%)” value is reported as 7%. In series [8], the “peritoneal cells II CMH (%)” value was 13% and the “peritoneal cells RFc (%)” value was 8%. Further, in [9], the “WT mice II CMH (%)” value is 12% and the “WT mice RFc (%)” value is reported as 1%. In [10], the “KO mice II CMR (%)” value stood at 3% and the “KO mice RFc (%)” value is 1%. Besides, in series [11], the “induction of the expression of HLA-DR” value is reported as “no activity”. The “% HLA-DR” value in series [11] (24 hours, flow cytometry) is on record as 1.2%. Moreover, the “increase in class II CMH molecules (FIG. 12A)” value in series [2] is “inactive”. The “increase in class II CMH molecules (FIG. 12B)” value in series [3] is “inactive”. In addition, in series [4] (25% trifluoroethanol), the “helical (ordered) conformation by CD” value is recorded as 53%. In addition, the “helical (ordered) conformation by CD” value in series [4] (50% trifluoroethanol) is recorded as 65%.
Consider “MuS: non-lipid scrambled analogue of the Mu peptide (PSRENQNAVKIQKLSVVLRREQKHRVERLAFRNQSLPF)”, for which the “percentage of class II CMH detected by flow cytometry, P388D1” value in [5] came to 14%. Further, in series [6], the “percentage of class II CMH detected by flow cytometry, WEH1” value was 5%. Further, in series [7], the “splenocytes II CMH (%)” value is given as 9% and the “splenocytes RFc (%)” value is recorded as 8%. In series [8], the “peritoneal cells II CMH (%)” value came out at 6% and the “peritoneal cells RFc (%)” value stood at 8%. Further, in series [9], the “WT mice II CMH (%)” value stood at 3% and the “WT mice RFc (%)” value is on record as 1%. For the same compound, in series [10], the “KO mice II CMR (%)” value was 3% and the “KO mice RFc (%)” value was determined as 1%.
On to “recombinant IFN-γ: recombinant interferon-gamma cytokine used as reference”, for which the “stimulation time at which induction of class II CMH molecules is at a maximum” value in [5] (cell lines of Table 8) stood at 48 h.

Values taken from patent publication US6683052B1, “Lipopeptides containing an interferon-γ fragment, and uses thereof in pharmaceutical compositions” (Institut National de la Sante et de la Recherche Medicale …, priority 1998, dated 2004).
